ChEMBL document CHEMBL5042544, “Discovery of a Potent and Selective ATAD2 Bromodomain Inhibitor with Antiproliferative Activity in Breast Cancer Models” (J Med Chem, 2022)

What was measured:
[1] = target: ATPase family AAA domain-containing protein 2B (Homo sapiens, UniProt Q9ULI0); test: Binding affinity to human ATAD2B bromodomain assessed as dissociation constant by BROMOscan method
[2] = target: SWI/SNF-related matrix-associated actin-dependent regulator of chromatin subfamily A member 2 (Homo sapiens, UniProt P51531); test: Binding affinity to human SMARCA2 bromodomain assessed as residual activity at 300 nM by BROMOscan method relative to control
Sequence of SWI/SNF-related matrix-associated actin-dependent regulator of chromatin subfamily A member 2 (P51531 whole entry): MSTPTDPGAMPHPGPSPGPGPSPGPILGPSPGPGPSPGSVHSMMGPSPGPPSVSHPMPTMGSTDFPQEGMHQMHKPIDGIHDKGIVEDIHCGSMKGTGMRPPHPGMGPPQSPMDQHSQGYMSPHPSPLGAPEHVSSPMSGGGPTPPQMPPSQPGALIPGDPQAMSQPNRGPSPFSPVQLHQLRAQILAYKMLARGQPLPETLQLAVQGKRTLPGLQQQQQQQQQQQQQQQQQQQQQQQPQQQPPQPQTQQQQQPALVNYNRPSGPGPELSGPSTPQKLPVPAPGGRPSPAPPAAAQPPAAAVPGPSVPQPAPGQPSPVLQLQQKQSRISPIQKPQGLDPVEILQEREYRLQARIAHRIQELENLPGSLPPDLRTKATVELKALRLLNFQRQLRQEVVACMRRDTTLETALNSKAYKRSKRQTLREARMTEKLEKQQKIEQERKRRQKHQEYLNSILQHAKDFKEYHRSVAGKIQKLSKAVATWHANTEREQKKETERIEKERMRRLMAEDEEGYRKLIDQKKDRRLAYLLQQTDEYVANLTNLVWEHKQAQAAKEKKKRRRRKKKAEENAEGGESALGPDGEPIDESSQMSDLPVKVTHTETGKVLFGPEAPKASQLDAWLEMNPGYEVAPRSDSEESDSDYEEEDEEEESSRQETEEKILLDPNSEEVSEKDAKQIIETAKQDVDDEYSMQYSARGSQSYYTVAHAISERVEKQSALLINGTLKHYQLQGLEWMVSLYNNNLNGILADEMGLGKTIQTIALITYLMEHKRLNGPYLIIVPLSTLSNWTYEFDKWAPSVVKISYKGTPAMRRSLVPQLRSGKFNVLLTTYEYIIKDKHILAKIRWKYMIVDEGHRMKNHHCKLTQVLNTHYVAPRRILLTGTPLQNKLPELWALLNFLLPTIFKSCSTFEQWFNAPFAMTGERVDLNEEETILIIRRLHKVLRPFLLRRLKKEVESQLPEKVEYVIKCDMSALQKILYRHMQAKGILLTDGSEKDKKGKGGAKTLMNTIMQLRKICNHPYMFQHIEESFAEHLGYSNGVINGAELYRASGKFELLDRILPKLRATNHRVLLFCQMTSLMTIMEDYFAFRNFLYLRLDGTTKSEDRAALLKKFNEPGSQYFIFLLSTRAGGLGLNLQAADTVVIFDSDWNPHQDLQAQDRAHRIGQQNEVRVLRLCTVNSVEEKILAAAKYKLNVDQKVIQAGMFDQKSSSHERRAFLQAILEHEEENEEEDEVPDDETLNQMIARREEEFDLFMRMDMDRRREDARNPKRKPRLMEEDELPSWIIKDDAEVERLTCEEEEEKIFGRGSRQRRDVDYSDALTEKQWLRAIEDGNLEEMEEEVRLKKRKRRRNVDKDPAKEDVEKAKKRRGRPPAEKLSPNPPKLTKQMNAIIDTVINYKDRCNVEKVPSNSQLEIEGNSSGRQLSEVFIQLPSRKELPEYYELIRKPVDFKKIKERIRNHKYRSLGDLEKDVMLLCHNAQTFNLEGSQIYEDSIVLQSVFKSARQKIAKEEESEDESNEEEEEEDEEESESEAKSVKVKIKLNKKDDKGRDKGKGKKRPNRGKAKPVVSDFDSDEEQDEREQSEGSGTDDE

[3] = target: Nucleosome-remodeling factor subunit BPTF (Homo sapiens, UniProt Q12830); test: Binding affinity to human FALZ bromodomain by BROMOscan method
[4] = target: Bromodomain-containing protein 4 (Homo sapiens, UniProt O60885); test: Displacement of Halo-tagged Histone H3.3 from Nanoluc-BRD4 BD1/BD2 (44 to 460 residues) (unknown origin) transfected in human HCT116 cells incubated for 18 hrs by NanoBRET assay; format: cell-based, HCT-116
[5] = target: Bromodomain-containing protein 2 (Homo sapiens, UniProt P25440); test: Binding affinity to human BRD2 bromodomain 1 assessed as residual activity at 300 nM by BROMOscan method relative to control
Sequence of Bromodomain-containing protein 2 (P25440 whole entry, looked up): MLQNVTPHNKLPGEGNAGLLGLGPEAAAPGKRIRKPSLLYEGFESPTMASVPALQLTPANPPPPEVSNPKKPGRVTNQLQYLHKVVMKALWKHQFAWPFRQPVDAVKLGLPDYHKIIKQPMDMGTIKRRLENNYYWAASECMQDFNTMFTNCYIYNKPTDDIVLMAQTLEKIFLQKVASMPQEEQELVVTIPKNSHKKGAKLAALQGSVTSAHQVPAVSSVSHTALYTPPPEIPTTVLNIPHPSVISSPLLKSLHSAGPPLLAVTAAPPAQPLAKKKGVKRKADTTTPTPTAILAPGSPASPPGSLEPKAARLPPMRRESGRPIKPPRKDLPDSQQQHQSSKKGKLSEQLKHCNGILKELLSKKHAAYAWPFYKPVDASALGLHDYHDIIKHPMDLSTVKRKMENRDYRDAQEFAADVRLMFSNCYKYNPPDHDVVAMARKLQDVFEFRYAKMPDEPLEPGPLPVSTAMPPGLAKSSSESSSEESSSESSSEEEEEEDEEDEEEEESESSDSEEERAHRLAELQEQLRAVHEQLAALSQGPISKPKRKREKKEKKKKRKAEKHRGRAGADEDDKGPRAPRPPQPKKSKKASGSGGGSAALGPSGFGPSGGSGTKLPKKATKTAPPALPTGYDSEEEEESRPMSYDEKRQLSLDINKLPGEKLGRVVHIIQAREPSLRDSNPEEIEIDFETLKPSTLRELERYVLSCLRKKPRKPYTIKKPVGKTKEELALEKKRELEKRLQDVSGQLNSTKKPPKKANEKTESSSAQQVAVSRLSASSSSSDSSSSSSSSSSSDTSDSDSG

[6] = target: SWI/SNF-related matrix-associated actin-dependent regulator of chromatin subfamily A member 4 (Homo sapiens) (UniProt P51532); test: Binding affinity to human SMARCA4 bromodomain assessed as residual activity at 300 nM by BROMOscan method relative to control
Sequence of SWI/SNF-related matrix-associated actin-dependent regulator of chromatin subfamily A member 4 (Homo sapiens) (P51532 whole entry): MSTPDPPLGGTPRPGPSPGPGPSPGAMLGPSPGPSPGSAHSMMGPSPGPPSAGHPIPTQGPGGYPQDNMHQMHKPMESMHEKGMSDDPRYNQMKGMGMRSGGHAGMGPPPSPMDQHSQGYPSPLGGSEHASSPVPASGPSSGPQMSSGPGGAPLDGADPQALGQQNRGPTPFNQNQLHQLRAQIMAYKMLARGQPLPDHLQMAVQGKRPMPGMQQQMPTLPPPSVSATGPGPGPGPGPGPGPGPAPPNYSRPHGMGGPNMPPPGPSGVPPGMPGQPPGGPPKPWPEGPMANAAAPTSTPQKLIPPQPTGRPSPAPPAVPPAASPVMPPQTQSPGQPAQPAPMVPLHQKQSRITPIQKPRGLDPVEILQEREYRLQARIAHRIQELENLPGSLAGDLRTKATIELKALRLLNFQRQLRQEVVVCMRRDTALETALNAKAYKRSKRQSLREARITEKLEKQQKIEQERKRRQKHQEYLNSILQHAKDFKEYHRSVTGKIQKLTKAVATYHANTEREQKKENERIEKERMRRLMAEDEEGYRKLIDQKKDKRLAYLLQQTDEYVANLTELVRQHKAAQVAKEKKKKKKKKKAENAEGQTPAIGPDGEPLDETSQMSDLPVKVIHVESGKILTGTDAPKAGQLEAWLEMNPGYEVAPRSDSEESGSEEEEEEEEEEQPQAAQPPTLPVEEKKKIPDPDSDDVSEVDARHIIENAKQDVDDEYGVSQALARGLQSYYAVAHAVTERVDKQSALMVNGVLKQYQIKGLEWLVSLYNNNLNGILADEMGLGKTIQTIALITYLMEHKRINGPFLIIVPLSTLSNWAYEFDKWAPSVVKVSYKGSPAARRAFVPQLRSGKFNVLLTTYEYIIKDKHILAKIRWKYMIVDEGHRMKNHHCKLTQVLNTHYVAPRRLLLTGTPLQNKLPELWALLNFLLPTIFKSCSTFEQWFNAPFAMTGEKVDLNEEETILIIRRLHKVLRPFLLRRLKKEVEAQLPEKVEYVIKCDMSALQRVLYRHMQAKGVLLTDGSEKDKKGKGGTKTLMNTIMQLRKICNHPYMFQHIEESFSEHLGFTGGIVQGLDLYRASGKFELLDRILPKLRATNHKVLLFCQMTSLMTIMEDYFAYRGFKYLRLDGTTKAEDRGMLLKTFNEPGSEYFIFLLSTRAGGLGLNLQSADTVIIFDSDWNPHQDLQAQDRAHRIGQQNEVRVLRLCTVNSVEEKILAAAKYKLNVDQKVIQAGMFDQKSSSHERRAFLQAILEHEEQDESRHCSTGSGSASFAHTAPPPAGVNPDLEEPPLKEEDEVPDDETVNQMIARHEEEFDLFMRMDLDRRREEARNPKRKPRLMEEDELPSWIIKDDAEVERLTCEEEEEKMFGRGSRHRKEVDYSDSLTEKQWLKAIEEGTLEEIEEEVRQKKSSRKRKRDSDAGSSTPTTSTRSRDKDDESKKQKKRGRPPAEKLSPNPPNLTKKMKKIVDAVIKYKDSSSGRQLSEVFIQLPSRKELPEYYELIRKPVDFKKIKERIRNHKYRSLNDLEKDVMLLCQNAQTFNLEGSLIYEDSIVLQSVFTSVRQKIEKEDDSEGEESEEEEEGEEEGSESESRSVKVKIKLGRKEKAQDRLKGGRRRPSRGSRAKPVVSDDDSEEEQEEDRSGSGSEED

[7] = target: Histone acetyltransferase KAT2A (Homo sapiens) (UniProt Q92830); test: Binding affinity to human GCN5L2 bromodomain assessed as residual activity at 300 nM by BROMOscan method relative to control
Sequence of Histone acetyltransferase KAT2A (Homo sapiens) (Q92830 2-837 limits assumed): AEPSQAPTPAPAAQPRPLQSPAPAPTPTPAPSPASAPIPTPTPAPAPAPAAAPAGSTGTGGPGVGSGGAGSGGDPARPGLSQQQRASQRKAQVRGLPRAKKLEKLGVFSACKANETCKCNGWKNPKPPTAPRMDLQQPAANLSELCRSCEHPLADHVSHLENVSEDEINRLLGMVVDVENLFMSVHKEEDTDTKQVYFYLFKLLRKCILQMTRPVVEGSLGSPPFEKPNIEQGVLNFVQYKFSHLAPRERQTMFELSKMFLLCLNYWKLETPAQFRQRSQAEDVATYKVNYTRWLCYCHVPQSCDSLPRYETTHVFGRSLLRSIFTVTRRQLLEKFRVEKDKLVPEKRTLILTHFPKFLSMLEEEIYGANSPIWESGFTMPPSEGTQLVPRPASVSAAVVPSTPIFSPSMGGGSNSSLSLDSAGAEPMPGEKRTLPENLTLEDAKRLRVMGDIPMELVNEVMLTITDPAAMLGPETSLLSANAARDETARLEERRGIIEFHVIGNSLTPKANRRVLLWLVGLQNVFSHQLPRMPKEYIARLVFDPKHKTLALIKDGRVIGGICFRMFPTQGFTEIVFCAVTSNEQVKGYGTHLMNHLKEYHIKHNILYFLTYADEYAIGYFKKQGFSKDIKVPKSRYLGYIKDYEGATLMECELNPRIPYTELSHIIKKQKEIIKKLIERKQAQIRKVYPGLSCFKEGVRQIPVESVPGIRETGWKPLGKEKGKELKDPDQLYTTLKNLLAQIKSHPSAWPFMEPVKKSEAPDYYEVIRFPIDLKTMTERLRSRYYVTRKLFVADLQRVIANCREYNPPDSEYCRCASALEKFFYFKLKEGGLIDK

[8] = target: Bromodomain testis-specific protein (Homo sapiens, UniProt Q58F21); test: Binding affinity to human BRDT bromodomain 2 assessed as residual activity at 300 nM by BROMOscan method relative to control

Kd [1]: 0.00794 µM
Activity [2]: 36%
Kd [3]: > 0.316 µM
IC50 [4]: 10 µM
Activity [5]: 47%
Activity [6]: 80%
Activity [7]: 73%
Activity [8]: 71%
Structure (SMILES): Cc1nnc2c(NC3CCN(CC(C)(C)F)CC3)cc(C(=O)N3[C@@H]4c5ccccc5C[C@H]3C(=O)N[C@@H]4C(C)C)nn12
